Assay results from the NIST ThermoML archive (doi:10.1021/je900164a).

Assay: xn = mol fraction of the nth substance listed
Settings: 101 kPa, Liquid, Vibrating tube method

CCCC[N+](CCCC)(CCCC)CCCC.[Br-] [tetrabutylammonium bromide] + O
Settings	mass density [kg/m3]
276.15 K, x1 = 0.0009	1001.35
276.15 K, x1 = 0.0018	1002.75
276.15 K, x1 = 0.00359	1005.6
276.15 K, x1 = 0.00715	1011.37
276.15 K, x1 = 0.01069	1017.09
276.15 K, x1 = 0.01421	1022.49
276.15 K, x1 = 0.0177	1027.72
276.15 K, x1 = 0.02202	1033.53
276.15 K, x1 = 0.02631	1038.46
276.15 K, x1 = 0.03056	1042.53
277.15 K, x1 = 0.0009	1001.35
277.15 K, x1 = 0.0018	1002.73
277.15 K, x1 = 0.00359	1005.52
277.15 K, x1 = 0.00715	1011.23
277.15 K, x1 = 0.01069	1016.88
277.15 K, x1 = 0.01421	1022.16
277.15 K, x1 = 0.0177	1027.3
277.15 K, x1 = 0.02202	1033.01
277.15 K, x1 = 0.02631	1037.94
277.15 K, x1 = 0.03056	1040.98
277.15 K, x1 = 0.03478	1045.39
277.15 K, x1 = 0.0431	1050.63
277.15 K, x1 = 0.05128	1054.86
277.15 K, x1 = 0.07499	1060.81
278.15 K, x1 = 0.0009	1001.32
278.15 K, x1 = 0.0018	1002.69
278.15 K, x1 = 0.00359	1005.47
278.15 K, x1 = 0.00715	1011.09
278.15 K, x1 = 0.01069	1016.66
278.15 K, x1 = 0.01421	1021.91
278.15 K, x1 = 0.0177	1026.96
278.15 K, x1 = 0.02202	1032.57
278.15 K, x1 = 0.02631	1037.41
278.15 K, x1 = 0.03056	1040.41
278.15 K, x1 = 0.03478	1044.76
278.15 K, x1 = 0.0431	1049.93
278.15 K, x1 = 0.05128	1054.13
278.15 K, x1 = 0.07499	1060.07
279.18 K, x1 = 0.0009	1001.28
279.18 K, x1 = 0.0018	1002.65
279.18 K, x1 = 0.00359	1005.39
279.18 K, x1 = 0.00715	1010.96
279.18 K, x1 = 0.01069	1016.45
279.18 K, x1 = 0.01421	1021.63
279.18 K, x1 = 0.0177	1026.61
279.18 K, x1 = 0.02202	1032.11
279.18 K, x1 = 0.02631	1036.89
279.18 K, x1 = 0.03056	1039.82
279.18 K, x1 = 0.03478	1044.11
279.18 K, x1 = 0.0431	1049.24
279.18 K, x1 = 0.05128	1053.4
279.18 K, x1 = 0.07499	1059.33
280.15 K, x1 = 0.0009	1001.23
280.15 K, x1 = 0.0018	1002.58
280.15 K, x1 = 0.00359	1005.29
280.15 K, x1 = 0.00715	1010.78
280.15 K, x1 = 0.01069	1016.22
280.15 K, x1 = 0.01421	1021.32
280.15 K, x1 = 0.0177	1026.22
280.15 K, x1 = 0.02202	1031.62
280.15 K, x1 = 0.02631	1036.32
280.15 K, x1 = 0.03056	1039.11
280.15 K, x1 = 0.03478	1043.44
280.15 K, x1 = 0.0431	1048.51
280.15 K, x1 = 0.05128	1052.65
280.15 K, x1 = 0.07499	1058.55
281.15 K, x1 = 0.0009	1001.16
281.15 K, x1 = 0.0018	1002.49
281.15 K, x1 = 0.00359	1005.18
281.15 K, x1 = 0.00715	1010.61
281.15 K, x1 = 0.01069	1015.98
281.15 K, x1 = 0.01421	1020.99
281.15 K, x1 = 0.0177	1025.83
281.15 K, x1 = 0.02202	1031.18
281.15 K, x1 = 0.02631	1035.8
281.15 K, x1 = 0.03056	1038.63
281.15 K, x1 = 0.03478	1042.82
281.15 K, x1 = 0.0431	1048.23
281.15 K, x1 = 0.05128	1051.94
281.15 K, x1 = 0.07499	1057.83
282.15 K, x1 = 0.0009	1001.09
282.15 K, x1 = 0.0018	1002.4
282.15 K, x1 = 0.00359	1005.07
282.15 K, x1 = 0.00715	1010.44
282.15 K, x1 = 0.01069	1015.72
282.15 K, x1 = 0.01421	1020.68
282.15 K, x1 = 0.0177	1025.44
282.15 K, x1 = 0.02202	1030.69
282.15 K, x1 = 0.02631	1035.23
282.15 K, x1 = 0.03056	1038.05
282.15 K, x1 = 0.03478	1042.16
282.15 K, x1 = 0.0431	1047.12
282.15 K, x1 = 0.05128	1051.21
282.15 K, x1 = 0.07499	1057.05
283.15 K, x1 = 0.0009	1001
283.15 K, x1 = 0.0018	1002.3
283.15 K, x1 = 0.00359	1004.95
283.15 K, x1 = 0.00715	1010.26
283.15 K, x1 = 0.01069	1015.5
283.15 K, x1 = 0.01421	1020.38
283.15 K, x1 = 0.0177	1025.06
283.15 K, x1 = 0.02202	1030.21
283.15 K, x1 = 0.02631	1034.68
283.15 K, x1 = 0.03056	1037.44
283.15 K, x1 = 0.03478	1041.49
283.15 K, x1 = 0.0431	1046.41
283.15 K, x1 = 0.05128	1050.46
283.15 K, x1 = 0.07499	1056.3
288.15 K, x1 = 0.0009	1000.35
288.15 K, x1 = 0.0018	1001.6
288.15 K, x1 = 0.00359	1004.1
288.15 K, x1 = 0.00715	1009.15
288.15 K, x1 = 0.01069	1014.04
288.15 K, x1 = 0.01421	1018.72
288.15 K, x1 = 0.0177	1023.06
288.15 K, x1 = 0.02202	1027.79
288.15 K, x1 = 0.02631	1031.87
288.15 K, x1 = 0.03056	1035.33
288.15 K, x1 = 0.03478	1038.35
288.15 K, x1 = 0.0431	1042.93
288.15 K, x1 = 0.05128	1046.34
293.15 K, x1 = 0.0009	999.405
293.15 K, x1 = 0.0018	1000.6
293.15 K, x1 = 0.00359	1002.98
293.15 K, x1 = 0.00715	1007.76
293.15 K, x1 = 0.01069	1012.37
293.15 K, x1 = 0.01421	1016.75
293.15 K, x1 = 0.0177	1020.77
293.15 K, x1 = 0.02202	1025.18
293.15 K, x1 = 0.02631	1028.99
293.15 K, x1 = 0.03056	1032.22
293.15 K, x1 = 0.03478	1035.02
293.15 K, x1 = 0.0431	1039.41
293.15 K, x1 = 0.05128	1042.74
298.15 K, x1 = 0.0009	998.18
298.15 K, x1 = 0.0018	999.32
298.15 K, x1 = 0.00359	1001.59
298.15 K, x1 = 0.00715	1006.13
298.15 K, x1 = 0.01069	1010.49
298.15 K, x1 = 0.01421	1014.53
298.15 K, x1 = 0.0177	1018.3
298.15 K, x1 = 0.02202	1022.43
298.15 K, x1 = 0.02631	1026
298.15 K, x1 = 0.03056	1029.06
298.15 K, x1 = 0.03478	1031.68
298.15 K, x1 = 0.0431	1035.89
298.15 K, x1 = 0.05128	1039.06
303.15 K, x1 = 0.0009	996.74
303.15 K, x1 = 0.0018	997.82
303.15 K, x1 = 0.00359	999.99
303.15 K, x1 = 0.00715	1004.3
303.15 K, x1 = 0.01069	1008.43
303.15 K, x1 = 0.01421	1012.26
303.15 K, x1 = 0.0177	1015.77
303.15 K, x1 = 0.02202	1019.65
303.15 K, x1 = 0.02631	1022.97
303.15 K, x1 = 0.03056	1025.85
303.15 K, x1 = 0.03478	1028.34
303.15 K, x1 = 0.0431	1032.36
303.15 K, x1 = 0.05128	1035.44
308.15 K, x1 = 0.0009	995.085
308.15 K, x1 = 0.0018	996.14
308.15 K, x1 = 0.00359	998.22
308.15 K, x1 = 0.00715	1002.32
308.15 K, x1 = 0.01069	1006.21
308.15 K, x1 = 0.01421	1009.84
308.15 K, x1 = 0.0177	1013.13
308.15 K, x1 = 0.02202	1016.74
308.15 K, x1 = 0.02631	1019.88
308.15 K, x1 = 0.03056	1022.54
308.15 K, x1 = 0.03478	1024.97
308.15 K, x1 = 0.0431	1028.78
308.15 K, x1 = 0.05128	1031.82
